Data from patent US9193718B2, “Quinazoline derivative and application thereof” (FUJIAN INSTITUTE OF RESEARCH ON THE STRUCTURE OF MATTER, …, priority 2012, dated 2015).

Molecular target: T1, Tyrosine kinase (EGFR) (Homo sapiens, UniProt P00533)
T1 construct: made in house
Experiment: EGFR tyrosine kinase inhibition by Enzyme-Linked Immunosorbent assay
Format: biochemical
Settings: compound at a concentration of 100 μM; ATP 5 μM; substrate poly(Glu,Tyr)4:1
Excerpt: Tyrosine kinase (EGFR) was expressed using a baculovirus expression system, and purified by using a Ni-NTA affinity chromatography. After tested, it was consistent with experimental standard. Poly(Glu,Tyr)4:1 (Sigma), Monoclonal Anti-Phosphotyrosine antibody PY99 (Santa Cruz), horseradish peroxidase-labeled goat anti-mouse IgG (Calbiochem), ATP, DTT, OPD (Amresco), microplates (Corning). Other reagents were all commercially available with analytical grade purity, which were not treated before use if no special instructions present. Isopropanol was dried with molecular sieves before use.
Quinazoline compounds represented by formula (I) and their pharmaceutically acceptable salts according to the present invention are used as EGFR inhibitors. The activity of the particularized compounds for inhibiting EGFR was determined by Enzyme-Linked Immunosorbent assay.
Detailed experimental procedure is as follows:
(1) Kinase reaction substrate poly(Glu,Tyr)4:1 was diluted to 20 μg/mL with potassium-free PBS, and the microplates were coated. After the reaction was for 12-16 h at 37° C., the liquid in the wells was removed.
(2) The plates were washed with T-PBS for three times, 10 min each time.
(3) The microplates were dried in an oven at 37.
(4) The samples to be tested were added into the wells of the coated microplates (wherein the samples to be tested were formulated to a 1×10^−2M stock solution with DMSO, and diluted to the desired concentration with reaction buffer before use. The resulted solution was added into the wells and then allowed to achieve the corresponding final concentration in 100 μL reaction system.
(5) the addition of ATP and tested tyrosine kinases
ATP solution diluted with reaction buffer (the final concentration of ATP is 5 μM) and the tested tyrosine kinases solution diluted with reaction buffer were added. The total volume of the reaction is 100 μL. Meanwhile the negative control wells and the control wells without enzyme were set up.
(6) The reaction system was placed in a wet box, and shaked for 1 hour at 37° C. shielding from light. After the reaction was complete, the plates were washed with T-PBS for three times.
(7) Antibody PY99 was added into each well (100 μL/well); and the plates were shaked for 30 min at 37° C. After the reaction was complete, the plates were washed with T-PBS for three times.
(8) 100 μL horseradish peroxidase-labeled goat anti-mouse IgG was added into each well, and the plates were shaked for 30 min at 37° C. The plates were washed with T-PBS for three times.
(9) 100 μL OPD developing liquid was added in each well, and was reacted for 1-10 min at room temperature shielding from light.
(10) 2M H2SO4 was added into each well to terminate the reaction. A490 value was determined using wavelength-tunable microplate reader. The inhibition ratio can be calculated by the following formula: […]
According to the above-described activity test method, the activity of inhibiting EGFR enzyme of the compounds represented by formula (I) or salts thereof were calculated.

| Molecule | EGFR inhibition rate (%) |
| --- | --- |
| COc1cc2ncnc(OCc3cc(-c4ccccc4)no3)c2cc1OC [Compound Q-15, 6,7-dimethoxy-4-((3-phenyl-isoxazol-5-yl)-methoxy-)-quinazoline] | 30.7% |
| COc1cc2ncnc(OCc3cc(-c4ccc(Br)cc4)no3)c2cc1OC [Compound Q-21] | 30.9% |
| Clc1ccccc1-c1cc(COc2ncnc3ccccc23)on1 [Compound Q-4] | 25.8% |
| (6,7-bis(2-methoxyethoxy))-4-((3-(4-chlorophenyl)-isoxazol-5-yl))-methoxy-)-quinazoline [Compound Q-33] | 14.1% |
| COc1ccc(-c2cc(COc3ncnc4ccccc34)on2)cc1 [Compound Q-3] | 7.3% |
| COc1cc2ncnc(OCc3cc(-c4ccc(Cl)cc4)no3)c2cc1OC [Compound Q-19] | 14.5% |
| COCCOc1cc2ncnc(OCc3cc(-c4ccccc4)no3)c2cc1OCCOC [Compound Q-29, (6,7-bis(2-methoxyethoxy))-4-((3-phenyl-isoxazol-5-yl)-methoxy-)-quinazoline] | 27.7% |
| COc1cc2ncnc(OCc3cc(-c4ccc(Cl)cc4Cl)no3)c2cc1OC [Compound Q-20] | 29.8% |
| Clc1ccc(-c2cc(COc3ncnc4ccccc34)on2)cc1 [Compound Q-5] | 16.7% |
| COCCOc1cc2ncnc(OCc3cc(-c4ccc(C)cc4)no3)c2cc1OCCOC [Compound Q-30, (6,7-bis(2-methoxyethoxy))-4-((3-(4-methylphenyl)-isoxazol-5-yl)-methoxy-)-quinazoline] | 20.4% |
| COCCOc1cc2ncnc(OCc3cc(-c4ccccc4Cl)no3)c2cc1OCCOC [Compound Q-32] | 11.8% |
| c1ccc(-c2cc(COc3ncnc4ccccc34)on2)cc1 [Compound Q-1, 4-((3-phenyl-isoxazol-5-yl)-methoxy-)-quinazoline] | 18.0% |
| Brc1ccc(-c2cc(COc3ncnc4ccccc34)on2)cc1 [Compound Q-7] | 15.7% |
| COc1cc2ncnc(OCc3cc(-c4ccccc4Cl)no3)c2cc1OC [Compound Q-18] | 1.2% |
| COc1ccc(-c2cc(COc3ncnc4cc(OC)c(OC)cc34)on2)cc1 [Compound Q-17] | 47.0% |
| COCCOc1cc2ncnc(OCc3cc(-c4ccc(Br)cc4)no3)c2cc1OCCOC [Compound Q-35] | 6.4% |
| COCCOc1cc2ncnc(OCc3cc(-c4ccc(Cl)cc4Cl)no3)c2cc1OCCOC [Compound Q-34, (6,7-bis(2-methoxyethoxy))-4-((3-(2,4-dichlorophenyl)-isoxazol-5-yl)-methoxy-)-quinazoline] | 7.8% |
| Clc1ccc(-c2cc(COc3ncnc4ccccc34)on2)c(Cl)c1 [Compound Q-6] | 22.7% |
| COCCOc1cc2ncnc(OCc3cc(-c4ccc(OC)cc4)no3)c2cc1OCCOC [Compound Q-31] | 38.2% |
